Experimental data as given in patent US20260284079A1, “LIPID PRODRUGS OF ALLOPR[…] USES THEREOF” (Seaport Therapeutics, Inc., priority 2023, published 2026).

Key:
[1] = Video-oculography (VOG), saccades; assay type: in vivo, human; conditions: day 1, all doses tested (250, 375, 500 mg)
Text: Video-oculography (VOG) is a non-invasive, visual method of measuring horizontal, vertical, and torsional components involved in eye tracking, making use of a head-mounted mask equipped with cameras. VOG was used to measure 3 assessment metrics: horizontal saccades (movement of eyes towards a point of fixation), horizontal anti-saccades (movement of eyes away from a point of fixation), and horizontal and vertical pursuits (fixation of eyes on a moving object).
Binocular (both eyes) movements viewing were measured during the saccades test. During this 1-min trial, the visual target (small square) will jump from 0° to 10° to the right or to the left in a pseudorandom sequence. Duration of the target on screen vary pseudo-randomly from 1,500 to 2,000 ms to minimize anticipation of the subject. Then the visual target will be extinguished during 200 ms before the next move starting from the center. The participant is instructed to track the target on screen from center to side and from side to center without anticipation. The antisaccades test is identical to the saccades test in its procedure (with 10° jumps of the target) except that there is no extinction of the target. […]
Binocular movements viewing were measured during the pursuit tests. […]

salivary cortisol levels = assay: Trier Social Stress Test (TSST), salivary cortisol (Example 2); assay type: in vivo, human
Experimental: A double-blind, placebo-controlled study was performed in 80 healthy participants to determine the effects of a single dose of Compound 1 in a validated and standardized behavioral challenge, the Trier Social Stress Test (TSST). The TSST is a reliable behavioral model used to examine the neurobiological response to acute stress in humans, whereby an acute stress (and associated acute stress response) is induced under experimentally controlled conditions. The TSST induces stress through public speaking. It incorporates social evaluation and unpredictability, by obliging the person to speak in front of an unresponsive audience and is further followed by a surprise mental arithmetic test. The TSST combines elements of a social-evaluative threat and uncontrollability to produce a consistent and robust physiological and psychological stress response in humans. On the day of the study, the participant was tasked with a speech prompt, for which they had 3 minutes to prepare. The participant was then required to present the speech for 5 minutes to a panel while under the pretense of being recorded. Following the speech, participants were given an unexpected mental arithmetic task. The TSST is more fully described in Allen A et al., Neurobiol. Stress (2017), February; 6:113-126.
The study included a validation cohort and a randomized cohort. The validation cohort (n=10) was given placebo for the purposes of validating the TSST and study endpoints. The randomized cohort […] were randomized and stratified by sex to placebo or 375 mg of Compound 1 in a 1:1 ratio. The cohorts are described in Table 14. An overview of the TSST study design is also depicted in FIG. 4C.
Compound 1 was formulated in combination with excipients Peceol™ (glyceryl monooleate), Kolliphor® RH40 (macrogolglycerol hydroxystearate) and super-refined sesame oil as a clear to yellow viscous solution. Each gram of formulation contains 300 mg of Compound 1, 189 mg of Peceol™, 336 mg Kolliphor® RH40, and 175 mg of super-refined sesame oil. To prepare the final dosage, the required quantity is manually filled into size 17.5 oblong capsules. The placebo contained vehicle only, i.e., the above formulation without Compound 1.
The objective of the study was to evaluate the efficacy of Compound 1 vs. placebo in blunting the response to endpoints measured during and after the TSST procedure. The primary efficacy endpoint was the change from baseline (before TSST procedure) to the peak (maximum change) in salivary cortisol levels as measured before, during, and after the TSST procedure. The primary outcome for determining this was salivary cortisol levels. The key secondary outcomes were be the Numerical Rating Scale (NRS) for stress, anxiety, fear, embarrassment, and excitement. Additional secondary outcomes were the State Trait Anxiety Index (STAI), and blood pressure. Safety and tolerability (i.e., incidence, severity, and duration of treatment-emergent adverse events (TEAEs), serious adverse events (SAEs), and incidence of other clinically relevant signs) were also monitored. Prior to the TSST, a post-dose sample was collected for pharmacokinetic analysis.
To normalize for food effects, participants were served a standardized meal to be consumed approximately 30 minutes prior to dosing with Compound 1. Compound 1 was administered with 240 mL of RT water ~3-4 hours prior to the start of the TSST.
Cortisol levels (including, for example, salivary cortisol levels) are a robust and sensitive marker of stress and the stress hormone response. Salivary cortisol concentrations were collected and measured throughout the study, with the primary endpoint being the maximum change from baseline (pre-TSST).

[2] = Single ascending dose (SAD) study, PK (Example 1 Part 1)

CCCCCCCC(=O)OCC(COC(=O)CCCCCCC)OC(=O)CC(C)CC(=O)OCOC(=O)O[C@@H]1CC[C@@]2(C)[C@@H](CC[C@@H]3[C@@H]2CC[C@]2(C)[C@@H](C(C)=O)CC[C@@H]32)C1 (stereo partly drawn) [Compound 1]
time of maximum drop of saccade peak velocity [1]: 4 hour post-dose
decrease in salivary cortisol levels versus placebo, maximum non-transformed mean (salivary cortisol levels; 375 mg): ~ 2.2 ×
time during which blunting of salivary cortisol was significantly different from placebo (salivary cortisol levels; 375 mg): up to 30 minutes post-end of TSST
treatment effect size versus placebo, Cohen's d (salivary cortisol levels; 375 mg): 0.72
reduction in salivary cortisol levels post-TSST (salivary cortisol levels; 375 mg, 10 minutes post-TSST): 62.8%
reduction in salivary cortisol levels post-TSST (salivary cortisol levels; 375 mg, 60 minutes post-TSST): 45.5%
mean reduction in salivary cortisol levels post-TSST (salivary cortisol levels; 375 mg, across all time points): 54.4%
blunting of increases in salivary cortisol levels, LSMean change from baseline (pre-TSST) (salivary cortisol levels; single 375 mg oral dose ~3-4 hours before TSST): partial blunting
dose proportionality of mean plasma allopregnanolone and combined allopregnanolone concentrations ([2]; doses up to 560 mg): increased at a dose proportional rate
oral bioavailability ([2]; human, oral): high oral bioavailability
dose proportionality of several PK parameters ([2]; range of 750 to 1000 mg): greater than dose-proportional increase
maximal concentrations and exposure values, combined allopregnanolone compared to allopregnanolone ([2]; single ascending doses): at least 10 times higher
